In patent US10934310B2, “Inhibitors of Bruton's tyrosine kinase and method of their use” (JANSSEN PHARMACEUTICA NV, priority 2015, dated 2021):

Biological target: unphosphorylated-BTK kinase domain (UP-BTK), GST-tagged human BTK (389-659aa) (Homo sapiens (Human), UniProt Q06187)
Assay: BTK Kinase Lanthascreen Binding Assay
Details: Lanthascreen binding, 60 minutes incubation; pIC50 = negative log of the IC50 in molar
Procedure: BTK Kinase Lanthascreen Binding Assay:
A BTK kinase lanthascreen binding assay monitors compound binding to unphosphorylated-BTK kinase domain (UP-BTK), by competing with a fluorescent labeled tracer. […] Data were analyzed using Xlfit™ version 5.3 from ID Business Solutions (Guildford), Microsoft Excel add-in. pIC50 refers to the negative log of the IC50 in molar.

Chain of unphosphorylated-BTK kinase domain (UP-BTK), GST-tagged human BTK (389-659aa) (Q06187 389-659): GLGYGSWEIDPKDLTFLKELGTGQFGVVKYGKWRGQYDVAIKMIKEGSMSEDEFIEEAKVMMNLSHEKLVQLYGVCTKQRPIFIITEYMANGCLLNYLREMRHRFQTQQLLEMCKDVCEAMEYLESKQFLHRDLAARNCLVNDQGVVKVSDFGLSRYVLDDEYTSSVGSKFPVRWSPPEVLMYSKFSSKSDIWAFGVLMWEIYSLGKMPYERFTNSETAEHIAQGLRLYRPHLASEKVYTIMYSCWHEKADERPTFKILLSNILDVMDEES

Row | SMILES | BTK_I_binding pIC50
1 | C=CC(=O)N[C@H]1CCCC[C@H]1NC(=O)c1sc2nccc3c2c1NC(=O)N3c1ccc(Oc2ccccc2)cn1 [Example 291, N-((1R,2S)-2-Acrylamidocyclohexyl)-4-oxo-5-(5-phenoxypyridin-2-yl)-4,5-dihydro-3H-1-thia-3,5,8-triazaacenaphthylene-2-carboxamide] | 8.60
2 | C=CC(=O)N[C@H]1CCCC[C@H]1NC(=O)c1sc2nccc3c2c1NC(=O)N3c1cnc(Oc2ccccc2)cn1 [Example 295, N-((1R,2S)-2-Acrylamidocyclohexyl)-4-oxo-5-(5-phenoxypyrazin-2-yl)-4,5-dihydro-3H-1-thia-3,5,8-triazaacenaphthylene-2-carboxamide] | 8.39

Same assay, conditions: read-out: BTK_I_binding pIC50 (converted)

Row | SMILES | IC50 [nM]
3 | C=CC(=O)N[C@H]1CC[C@H](NC(=O)c2sc3nccc4c3c2NC(=O)N4c2ccnc(-c3ccccc3)c2)C1 [Example 282, N-((1S,3S)-3-Acrylamidocyclopentyl)-4-oxo-5-(2-phenylpyridin-4-yl)-4,5-dihydro-3H-1-thia-3,5,8-triazaacenaphthylene-2-carboxamide] | > 1000
4 | C=CC(=O)N[C@H]1CCC[C@@H](NC(=O)c2sc3nccc4c3c2NC(=O)N4c2ccnc(-c3ccccc3)c2)C1 [Example 283, N-((1R,3S)-3-Acrylamidocyclohexyl)-4-oxo-5-(2-phenylpyridin-4-yl)-4,5-dihydro-3H-1-thia-3,5,8-triazaacenaphthylene-2-carboxamide] | > 1000
5 | Cc1cc(OC2CCOCC2)ccc1N1C(=O)Nc2c(C(=O)N[C@@H]3CCC[C@@H]3N)sc3nccc1c23 [Example 287, N-((1R,2S)-2-Aminocyclopentyl)-5-(2-methyl-4-((tetrahydro-2H-pyran-4-yl)oxy)phenyl)-4-oxo-4,5-dihydro-3H-1-thia-3,5,8-triazaacenaphthylene-2-carboxamide] | > 1000
6 | N[C@H]1CCC[C@H]1NC(=O)c1sc2nccc3c2c1NC(=O)N3c1ccc(OC2CCOCC2)cc1 [Example 288, N-((1R,2S)-2-Aminocyclopentyl)-4-oxo-5-(4-((tetrahydro-2H-pyran-4-yl)oxy)phenyl)-4,5-dihydro-3H-1-thia-3,5,8-triazaacenaphthylene-2-carboxamide] | > 1000

Next, values leading:

Row | IC50 [nM] | SMILES
7 | > 1000 | CC(=O)N[C@H]1CCC[C@H]1NC(=O)c1sc2nccc3c2c1NC(=O)N3c1ccnc(-c2ccccc2)c1 [Example 280, N-((1R,2S)-2-Acetamidocyclopentyl)-4-oxo-5-(2-phenylpyridin-4-yl)-4,5-dihydro-3H-1-thia-3,5,8-triazaacenaphthylene-2-carboxamide]
8 | > 1000 | N[C@H]1CCC[C@H]1NC(=O)c1sc2nccc3c2c1NC(=O)N3c1cc(-c2ccccc2)ncn1 [Example 281, N-((1R,2S)-2-Aminocyclopentyl)-4-oxo-5-(6-phenylpyrimidin-4-yl)-4,5-dihydro-3H-1-thia-3,5,8-triazaacenaphthylene-2-carboxamide]
9 | > 1000 | N[C@H]1CCC[C@H]1NC(=O)c1sc2nccc3c2c1NC(=O)N3c1cncc(-c2ccccc2)c1 [Example 284, N-((1R,2S)-2-Aminocyclopentyl)-4-oxo-5-(5-phenylpyridin-3-yl)-4,5-dihydro-3H-1-thia-3,5,8-triazaacenaphthylene-2-carboxamide]
10 | > 1000 | N[C@H]1CCC[C@H]1NC(=O)c1sc2nccc3c2c1NC(=O)N3c1cccc(-c2ccccn2)c1 [Example 285, N-((1R,2S)-2-Aminocyclopentyl)-4-oxo-5-(3-(pyridin-2-yl)phenyl)-4,5-dihydro-3H-1-thia-3,5,8-triazaacenaphthylene-2-carboxamide]
11 | > 1000 | CNCC(=O)N[C@@H]1CCC[C@@H]1NC(=O)c1sc2nccc3c2c1NC(=O)N3c1ccnc(-c2ccccc2)c1 [Example 286, N-((1S,2R)-2-(2-(Methylamino)acetamido)cyclopentyl)-4-oxo-5-(2-phenylpyridin-4-yl)-4,5-dihydro-3H-1-thia-3,5,8-triazaacenaphthylene-2-carboxamide]
